Data on 35 compounds can be found in patent publication US10189812B2, “Bi-benzyl isoquinoline derivative, preparation method and use thereof in hepatopathy treatment and prevention” (THE KEY LABORATORY OF CHEMISTRY FOR NATURAL PRODUCTS OF …, priority 2014, dated 2019).

For assay [1], the system named is PLC/PRF/5 liver cancer cell strains. In words: Tetrazolium salt reduction method (MTT) on human liver cancer cell strain PLC/PRF/5. The assay is classed as cell-based. The method, then: 2. human liver cancer cell strains PLC/PRF/5 model discrimination
(§1) Tested methods: Tetrazolium salt reduction method (MTT)
(1) Inoculating cells: A uniform cell suspension was prepared with culture solution containing fetal calf serum (10%). The suspension was implanted into a 96-well cell culture disc by 1000-10000 cells/200 μL per well.
(§2) (2) Culturing cells: The cells were cultured for 3-5 days according to known methods in the art (culturing time depending on experiment objective and requirement).
(§3) (3) Colour response: The cells were cultured for 3-5 days, 20 μl of MTT solution (5 mg/mL, PBS <pH=7.4>) was added in each well, incubated for 4 h. Culture was terminated and the culture suspension was carefully sucked out. As for suspension cells, they need be centrifuged before suspension solution in wells was sucked out. 150 μL of DMSO was added in each well, vibrated for 10 min. The crystal was fully dissolved.
(§4) (4) Colorimetry: Light absorbance values in each well were measured by ELISA at 490 nm and the results were recorded. The cell growth curve was drawn with time as the abscissa and absorbance values as vertical coordinates.
Model principle: Dehydrogenase related to NADP exists in mitochondria of living cell. Yellow MIT is reduced to insoluble blue-purple Formanzan. Dehydrogenase is disappeared in dead cell and MIT can not be reduced. According to reduction extent, action effect of sample on tumor cell is defected.

Assay [2] relates to MHCC97L liver cancer cell strains. Put plainly: Tetrazolium salt reduction method (MTT) on human liver cancer cell strain MHCC97L. The format is cell-based. The method, then: 3. human liver cancer cell strains MHCC97L model discrimination
as §1
(1) Inoculating cells: Inoculating cells: A uniform cell suspension was prepared with culture solution containing fetal calf serum (10%). The suspension was implanted into a 96-well cell culture disc by 1000-10000 cells/200 μL per well.
as §2, §3, §4
Model principle: Dehydrogenase related to NADP exists in mitochondria of living cell. Yellow MTT is reduced to insoluble blue-purple Formanzan. Dehydrogenase is disappeared in dead cell and MTT can not be reduced. According to reduction extent, action effect of sample on tumor cell is defected.

Where [3] appears, read: Homo sapiens, PLC-PRF-5, MTT, cells cultured 3-5 days, read-out: PLC/PRF/5 IC50.
Setting [4] is: Homo sapiens, MHCC97L, MTT, cells cultured 3-5 days, read-out: MHCC97L IC50.
[5] abbreviates: Homo sapiens, PLC-PRF-5, read-out: PLC/PRF/5 IC50 (μM).
Setting [6] is: Homo sapiens, MHCC97L, read-out: MHCC97L IC50 (μM).
Setting [7] is: MTT, cells cultured 3-5 days, read-out: PLC/PRF/5 IC50.
Where [8] appears, read: MTT, cells cultured 3-5 days, read-out: MHCC97L IC50.

Like-named read-outs stand apart in the source and are kept apart here.

As to `COc1cc(N)c2cc1Oc1ccc(cc1)C[C@H]1c3cc(c(OC)cc3CCN1C)Oc1c(OC(=O)c3ccccc3)c(OC)cc3c1[C@H](C2)N(C)CC3` [Compound H-34], the IC50 in assay [1] (setting [3]) stood at 7.8 µM; in assay [2] (setting [4]), 6.6 µM.
For the compound `COc1cc(NC(C)=O)c2cc1Oc1ccc(cc1)C[C@H]1c3cc(c(OC)cc3CCN1C)Oc1c(OC)c(OC)cc3c1[C@H](C2)N(C)CC3` [Compound H-01], the IC50 in assay [1] (setting [5]) is 12.3 µM; in assay [2] (setting [6]) it was 12.9 µM.
For `COc1cc(NC(=O)OCC(C)C)c2cc1Oc1ccc(cc1)C[C@H]1c3cc(c(OC)cc3CCN1C)Oc1c(OC)c(OC)cc3c1[C@H](C2)N(C)CC3` [Compound H-08], the IC50 in assay [1] (setting [7]) stood at 4.6 µM; in assay [2] (setting [8]), 1.4 µM.
As to `COc1cc(N=O)c2cc1Oc1ccc(cc1)C[C@H]1c3cc(c(OC)cc3CCN1C)Oc1c(OC)c(OC)cc3c1[C@H](C2)N(C)CC3` [Compound H-30], the IC50 in assay [2] (setting [4]) was 10.7 µM.
Take `COc1cc(NC(=O)CO)c2cc1Oc1ccc(cc1)C[C@H]1c3cc(c(OC)cc3CCN1C)Oc1c(OC)c(OC)cc3c1[C@H](C2)N(C)CC3` [Compound H-12]: the IC50 was 10.1 µM in assay [1] (setting [3]) and 9.1 µM in assay [2] (setting [4]).
As for `COc1cc2c3cc1Oc1c(OC)c(OC)c(Cl)c4c1[C@H](Cc1c([N+](=O)[O-])cc(OC)c(c1Cl)Oc1ccc(cc1)C[C@@H]3N(C)CC2)N(C)CC4` [Compound H-44], the IC50 is 4.1 µM in assay [1] (setting [7]) and 9.4 µM in assay [2] (setting [8]).
As for `COc1cc([N+](=O)[O-])c2cc1Oc1ccc(cc1)C[C@H]1c3cc(c(OC)cc3CCN1C)Oc1c(OCc3ccccc3)c(OC)cc3c1[C@H](C2)N(C)CC3` [Compound H-32], the IC50 was determined as 8.9 µM in assay [1] (setting [3]) and 1.26 µM in assay [2] (setting [4]).
Taken in the same sequence, the figures for `C=C(OC)/C(OC)=C1/Oc2cc3c(cc2OC)CCN(C)[C@H]3Cc2ccc(cc2)Oc2cc(c(S(=O)(=O)O)cc2OC)C[C@H]2C1=CCCN2C` [Compound H-37] were 7.6 µM and 7.3 µM.
Taken in the same sequence, the figures for `COc1cc(NS(C)(=O)=O)c2cc1Oc1ccc(cc1)C[C@H]1c3cc(c(OC)cc3CCN1C)Oc1c(OC)c(OC)cc3c1[C@H](C2)N(C)CC3` [Compound H-17] were 4.6 µM and 9.8 µM.
With `COc1cc2c3cc1Oc1c(OC)c(OC)c(Br)c4c1[C@H](Cc1c(S(=O)(=O)O)cc(OC)c(c1Br)Oc1ccc(cc1)C[C@@H]3N(C)CC2)N(C)CC4` [Compound H-41], the IC50 in assay [1] (setting [3]) amounted to 9 µM; in assay [2] (setting [4]) it was 8.6 µM.
In the case of `COc1cc(Br)c2cc1Oc1ccc(cc1)C[C@H]1c3cc(c(OC)cc3CCN1C)Oc1c(OC(C)=O)c(OC)c(Br)c3c1[C@H](C2)N(C)CC3` [Compound H-49], the IC50 was 2.4 µM in assay [1] (setting [5]) and 8.7 µM in assay [2] (setting [6]).
In the case of `COc1cc([N+](=O)[O-])c2cc1Oc1ccc(cc1)C[C@H]1c3cc(c(OC)cc3CCN1C)Oc1c(OC(=O)c3ccccc3)c(OC)cc3c1[C@H](C2)N(C)CC3` [Compound H-52], the IC50 came out at 6.7 µM in assay [1] (setting [7]) and 9.7 µM in assay [2] (setting [8]).
Take `COc1cc2c3cc1Oc1c(OC(C)=O)c(OC)c(Cl)c4c1[C@H](Cc1c(Cl)cc(OC)c(c1Cl)Oc1ccc(cc1)C[C@@H]3N(C)CC2)N(C)CC4` [Compound H-51]: the IC50 in assay [1] (setting [5]) turned out to be 1.4 µM; in assay [2] (setting [6]), 10.4 µM.
Regarding `COc1cc(NS(=O)(=O)c2ccccc2[N+](=O)[O-])c2cc1Oc1ccc(cc1)C[C@H]1c3cc(c(OC)cc3CCN1C)Oc1c(OC)c(OC)cc3c1[C@H](C2)N(C)CC3` [Compound H-21], the IC50 in assay [1] (setting [7]) came to 10.8 µM; in assay [2] (setting [8]), 11.3 µM.
As to `COC(=O)C(=O)Nc1cc(OC)c2cc1C[C@H]1c3c(cc(OC)c(OC)c3Oc3cc4c(cc3OC)CCN(C)[C@H]4Cc3ccc(cc3)O2)CCN1C` [Compound H-14], the IC50 in assay [1] (setting [7]) amounted to 12.7 µM; in assay [2] (setting [8]), 7.9 µM.
For `COc1cc(NS(=O)(=O)c2ccccc2)c2cc1Oc1ccc(cc1)C[C@H]1c3cc(c(OC)cc3CCN1C)Oc1c(OC)c(OC)cc3c1[C@H](C2)N(C)CC3` [Compound H-18], the IC50 in assay [1] (setting [7]) is 10.7 µM; in assay [2] (setting [8]), 9.1 µM.
Consider `COc1cc(S(=O)(=O)O)c2cc1Oc1ccc(cc1)C[C@H]1c3cc(c(OC)cc3CCN1C)Oc1c(OC(=O)c3ccccc3)c(OC)cc3c1[C@H](C2)N(C)CC3` [Compound H-45], for which the IC50 turned out to be 11.7 µM in assay [1] (setting [3]) and 8.9 µM in assay [2] (setting [4]).
With `COc1ccc2cc1Oc1ccc(cc1)C[C@H]1c3cc(c(OC)cc3CCN1C)Oc1c(OC(C)=O)c(OC)c(Br)c3c1[C@H](C2)N(C)CC3` [Compound H-48], the IC50 in assay [1] (setting [5]) amounted to 0.5 µM; in assay [2] (setting [6]) it was 4.1 µM.
For the compound `COc1cc(N)c2cc1Oc1ccc(cc1)C[C@H]1c3cc(c(OC)cc3CCN1C)Oc1c(OC)c(OC)cc3c1[C@H](C2)N(C)CC3` [Compound H-29], the IC50 in assay [1] (setting [3]) came out at 14.8 µM; in assay [2] (setting [4]) it was 10.1 µM.
Taken in the same sequence, the figures for `COc1cc(Cl)c2cc1Oc1ccc(cc1)C[C@H]1c3cc(c(OC)cc3CCN1C)Oc1c(OC)c(OC)c(Br)c3c1[C@H](C2)N(C)CC3` [Compound H-54] were 3.2 µM and 0.4 µM.
With `COc1cc([N+](=O)[O-])c2cc1Oc1ccc(cc1)C[C@H]1c3cc(c(OC)cc3CCN1C)Oc1c(OC)c(OC)cc3c1[C@H](C2)N(C)CC3` [Compound H-27], the IC50 in assay [1] (setting [5]) is 2.9 µM; in assay [2] (setting [6]), 1.9 µM.
In the case of `COc1cc(NS(=O)(=O)c2ccc(Cl)cc2Cl)c2cc1Oc1ccc(cc1)C[C@H]1c3cc(c(OC)cc3CCN1C)Oc1c(OC)c(OC)cc3c1[C@H](C2)N(C)CC3` [Compound H-22], the IC50 is 2.1 µM in assay [1] (setting [7]) and 5.6 µM in assay [2] (setting [8]).
Take `COc1cc([N+](=O)[O-])c2cc1Oc1ccc(cc1)C[C@H]1c3cc(c(OC)cc3CCN1C)Oc1c(OC(=O)c3ccccc3)c(OC)cc3c1[C@H](C2)N(C)CC3` [Compound H-33]: the IC50 in assay [1] (setting [3]) amounted to 9.3 µM.
Take `COc1ccc(C(=O)Nc2cc(OC)c3cc2C[C@H]2c4c(cc(OC)c(OC)c4Oc4cc5c(cc4OC)CCN(C)[C@H]5Cc4ccc(cc4)O3)CCN2C)cc1` [Compound H-04]: the IC50 in assay [1] (setting [7]) was 5.4 µM; in assay [2] (setting [8]), 12.2 µM.
For `COc1cc(S(=O)(=O)Nc2ccccc2)c2cc1Oc1ccc(cc1)C[C@H]1c3cc(c(OC)cc3CCN1C)Oc1c(OC)c(OC)cc3c1[C@H](C2)N(C)CC3` [Compound H-38], the results for the IC50 in assay [1] (setting [3]) and in assay [2] (setting [4]) were 10.2 µM and 10.7 µM, respectively.
Taken in the same sequence, the figures for `COc1cc(S(=O)(=O)OC)c2cc1Oc1ccc(cc1)C[C@H]1c3cc(c(OC)cc3CCN1C)Oc1c(OC)c(OC)cc3c1[C@H](C2)N(C)CC3` [Compound H-39] were 8.1 µM and 9.9 µM.
Regarding `COc1cc([N+](=O)[O-])c2cc1Oc1ccc(cc1)C[C@H]1c3cc(c(OC)cc3CCN1C)Oc1c(OC)c(OC)c([N+](=O)[O-])c3c1[C@H](C2)N(C)CC3` [Compound H-28], the figures for the IC50 in assay [1] (setting [3]) and in assay [2] (setting [4]) were 20.1 µM and 8.1 µM, respectively.
Regarding `CNC(=O)c1cc(Oc2ccc(NC(=O)Nc3ccc(Cl)c(C(F)(F)F)c3)cc2)ccn1` [Sorafenib, reference compound], the figures for the IC50 in assay [1] (setting [3]), in assay [2] (setting [4]) and in assay [2] (setting [8]) were 26.9 µM, 34.4 µM and 34.4 µM, respectively.
On to `COc1ccc2cc1Oc1ccc(cc1)C[C@H]1c3cc(c(OC)cc3CCN1C)Oc1c(OCc3ccccc3)c(OC)cc3c1[C@H](C2)[N+](C)(Cc1ccccc1)CC3` (stereo partly drawn) [Compound H-31], for which the IC50 in assay [1] (setting [5]) and in assay [2] (setting [6]) was 12.7 µM throughout.
Consider `COc1cc2c3cc1Oc1c(OC)c(OC)c(Br)c4c1[C@H](Cc1c([N+](=O)[O-])cc(OC)c(c1Br)Oc1ccc(cc1)C[C@@H]3N(C)CC2)N(C)CC4` [Compound H-36], for which the results for the IC50 in assay [1] (setting [3]) and in assay [2] (setting [4]) were 11.9 µM and 12.1 µM, respectively.
In the case of `COc1ccc2cc1Oc1ccc(cc1)C[C@H]1c3cc(c(OC)cc3CCN1C)Oc1c(ON=O)c(OC)cc3c1[C@H](C2)N(C)CC3` [Compound H-42], the values for the IC50 in assay [1] (setting [3]) and in assay [2] (setting [4]) were 3.4 µM and 9.6 µM, respectively.
Taken in the same sequence, the figures for `COc1cc([N+](=O)[O-])c2cc1Oc1ccc(cc1)C[C@H]1c3cc(c(OC)cc3CCN1C)Oc1c(OC)c(OC)c(Cl)c3c1[C@H](C2)N(C)CC3` [Compound H-43] were 8.1 µM and 8.8 µM.
With `COc1cc(NC(=O)COC(C)=O)c2cc1Oc1ccc(cc1)C[C@H]1c3cc(c(OC)cc3CCN1C)Oc1c(OC)c(OC)cc3c1[C@H](C2)N(C)CC3` [Compound H-13], the IC50 came out at 10.1 µM in assay [1] (setting [7]) and 8.4 µM in assay [2] (setting [8]).
For `COc1cc(S(=O)(=O)O)c2cc1Oc1ccc(cc1)C[C@H]1c3cc(c(OC)cc3CCN1C)Oc1c(OC)c(OC)c(Br)c3c1[C@H](C2)N(C)CC3` [Compound H-40], the IC50 in assay [1] (setting [7]) came to 10.5 µM; in assay [2] (setting [8]) it was 9.2 µM.
Regarding `COc1cc(Cl)c2cc1Oc1ccc(cc1)C[C@H]1c3cc(c(OC)cc3CCN1C)Oc1c(OC(C)=O)c(OC)c(Cl)c3c1[C@H](C2)N(C)CC3` [Compound H-50], the IC50 in assay [1] (setting [7]) stood at 9.8 µM; in assay [2] (setting [8]), 3.3 µM.
